# Where two headings read alike, the source gives them in different places. Where a SMILES comes first, the peptide text is derived from it.
# Test system: Fusarium graminearum
compound,measurement,setting,value
CC(C)[C@H](NC(=O)[C@H](CS)NC(=O)[C@H](CCCCN)NC(=O)[C@H](CS)NC(=O)[C@H](C)NC(=O)[C@H](C)NC(=O)[C@H](C)NC(=O)[C@H](C)NC(=O)[C@H](CS)NC(=O)[C@H](CCCCN)NC(=O)[C@@H]1CCCN1C(=O)[C@@H](NC(=O)[C@H](CCCCN)NC(=O)[C@@H]1CCCN1C(=O)[C@H](CCCCN)NC(=O)[C@H](CCCNC(=N)N)NC(=O)[C@H](CS)NC(=O)[C@H](C)NC(=O)[C@H](Cc1ccccc1)NC(=O)[C@H](CCCCN)NC(=O)[C@H](CCCCN)NC(=O)[C@H](CS)NC(=O)[C@H](CC(=O)O)NC(=O)[C@H](CCCCN)NC(=O)[C@H](CC(=O)O)NC(=O)[C@H](CO)NC(=O)[C@H](CCC(N)=O)NC(=O)[C@H](CS)NC(=O)[C@@H]1CCCN1C(=O)[C@H](CCCCN)NC(=O)[C@@H](N)[C@@H](C)O)C(C)C)C(=O)N[C@@H](CCCNC(=N)N)C(=O)O [NCR13_AlaV5] (H-TKPCQSDKDCKKFACRKPKVPKCAAAACKCVR-OH; N-terminus and C-terminus assumed),MIC (μM) Fusarium graminearum,48 h,6 µM
"CC[C@H](C)[C@H](NC(=O)[C@H](CS)NC(=O)[C@H](CCCCN)NC(=O)[C@@H]1CCCN1C(=O)[C@@H](NC(=O)[C@H](CCCCN)NC(=O)[C@@H]1CCCN1C(=O)[C@H](CCCCN)NC(=O)[C@H](CCCNC(=N)N)NC(=O)[C@H](CS)NC(=O)[C@H](C)NC(=O)[C@H](Cc1ccccc1)NC(=O)[C@H](CCCCN)NC(=O)[C@H](CCCCN)NC(=O)[C@H](CS)NC(=O)[C@H](CC(=O)O)NC(=O)[C@H](CCCCN)NC(=O)[C@H](CC(=O)O)NC(=O)[C@H](CO)NC(=O)[C@H](CCC(N)=O)NC(=O)[C@H](CS)NC(=O)[C@@H]1CCCN1C(=O)[C@H](CCCCN)NC(=O)[C@@H](N)[C@@H](C)O)C(C)C)C(=O)N[C@@H](CC(N)=O)C(=O)NCC(=O)N[C@@H](Cc1ccccc1)C(=O)N[C@@H](CS)C(=O)N[C@@H](CCCCN)C(=O)N[C@@H](CS)C(=O)N[C@H](C(=O)N[C@@H](CCCNC(=N)N)C(=O)O)C(C)C [NCR13, reference compound] (H-TKPCQSDKDCKKFACRKPKVPKCINGFCKCVR-OH; N-terminus and C-terminus assumed)",MIC (μM) Fusarium graminearum,48 h,6 µM
TKPCQSDKDCAAAACRKPKVPKCINGFCKCVR [NCR13_AlaV2],MIC (μM) Fusarium graminearum,,Inactive
TKPCQSDKDCKKFACAAAAVPKCINGFCKCVR [NCR13_AlaV3],MIC (μM) Fusarium graminearum,,Inactive
CC[C@H](C)[C@H](NC(=O)[C@H](CS)NC(=O)[C@H](CCCCN)NC(=O)[C@@H]1CCCN1C(=O)[C@@H](NC(=O)[C@H](CCCCN)NC(=O)[C@@H]1CCCN1C(=O)[C@H](CCCCN)NC(=O)[C@H](CCCNC(=N)N)NC(=O)[C@H](CS)NC(=O)[C@H](C)NC(=O)[C@H](Cc1ccccc1)NC(=O)[C@H](CCCCN)NC(=O)[C@H](CCCCN)NC(=O)[C@H](CS)NC(=O)[C@H](C)NC(=O)[C@H](C)NC(=O)[C@H](C)NC(=O)[C@H](C)NC(=O)[C@H](C)NC(=O)[C@H](CS)NC(=O)[C@@H]1CCCN1C(=O)[C@H](CCCCN)NC(=O)[C@@H](N)[C@@H](C)O)C(C)C)C(=O)N[C@@H](CC(N)=O)C(=O)NCC(=O)N[C@@H](Cc1ccccc1)C(=O)N[C@@H](CS)C(=O)N[C@@H](CCCCN)C(=O)N[C@@H](CS)C(=O)N[C@H](C(=O)N[C@@H](CCCNC(=N)N)C(=O)O)C(C)C [NCR13_AlaV1] (H-TKPCAAAAACKKFACRKPKVPKCINGFCKCVR-OH; N-terminus and C-terminus assumed),MIC (μM) Fusarium graminearum,48 h,6 µM
CC[C@H](C)[C@H](NC(=O)[C@H](CS)NC(=O)[C@H](C)NC(=O)[C@H](C)NC(=O)[C@H](C)NC(=O)[C@H](CCCCN)NC(=O)[C@@H]1CCCN1C(=O)[C@H](CCCCN)NC(=O)[C@H](CCCNC(=N)N)NC(=O)[C@H](CS)NC(=O)[C@H](C)NC(=O)[C@H](Cc1ccccc1)NC(=O)[C@H](CCCCN)NC(=O)[C@H](CCCCN)NC(=O)[C@H](CS)NC(=O)[C@H](CC(=O)O)NC(=O)[C@H](CCCCN)NC(=O)[C@H](CC(=O)O)NC(=O)[C@H](CO)NC(=O)[C@H](CCC(N)=O)NC(=O)[C@H](CS)NC(=O)[C@@H]1CCCN1C(=O)[C@H](CCCCN)NC(=O)[C@@H](N)[C@@H](C)O)C(=O)N[C@@H](CC(N)=O)C(=O)NCC(=O)N[C@@H](Cc1ccccc1)C(=O)N[C@@H](CS)C(=O)N[C@@H](CCCCN)C(=O)N[C@@H](CS)C(=O)N[C@H](C(=O)N[C@@H](CCCNC(=N)N)C(=O)O)C(C)C [NCR13_AlaV4] (H-TKPCQSDKDCKKFACRKPKAAACINGFCKCVR-OH; N-terminus and C-terminus assumed),MIC (μM) Fusarium graminearum,48 h,12 µM
